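Tested at 5 concentrations; 48 h exposure; 96-well plates; endpoints linearly interpolated, else capped at highest concentration. TGI marks complete inhibition of growth.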

The first experiment has as its system MCF7 breast. Nature of the experiment: DTP human tumour cell line panel, 48 h.
`CCN(CC)/C(SCc1ccccc1)=C(\C(Cl)=C(Cl)Cl)[N+](=O)[O-]`: the TGI is 32.1 µM.

Turning to `Cc1ccc2c(c1)C(=O)C1(Cc3ccccc3C1=O)C2` (stereo not given), the concentration for total growth inhibition (TGI) is over 100 µM.

`COc1cc(/C=C/C(=O)CC(=O)/C=C/c2ccc(OC(=O)CCCCC3CCSS3)c(OC)c2)ccc1OC(=O)CCCCC1CCSS1` (stereo not given) displayed a TGI of over 100 µM.

Consider `O=c1c2sc(=S)n(-c3ccc(F)cc3)c2ncn1/N=C/c1ccc(F)cc1F`, for which the TGI is over 100 µM.

Another experiment has as its system CAKI-1 renal. Nature of the experiment: DTP human tumour cell line panel, 48 h.
In turn, `CCN(CC)/C(SCc1ccccc1)=C(\C(Cl)=C(Cl)Cl)[N+](=O)[O-]` returned a TGI of 73.5 µM.

In the case of `O=c1c2sc(=S)n(-c3ccc(F)cc3)c2ncn1/N=C/c1ccc(F)cc1F`, the total growth inhibition concentration (TGI) was 32.9 µM.

Another experiment relates to NCI-H23 lung. Description: DTP human tumour cell line panel, 48 h.
Turning to `CCN(CC)/C(SCc1ccccc1)=C(\C(Cl)=C(Cl)Cl)[N+](=O)[O-]`, the TGI was found to be 49.6 µM.

As to `Cc1ccc2c(c1)C(=O)C1(Cc3ccccc3C1=O)C2` (stereo not given), the TGI was over 100 µM.

Turning to `COc1cc(/C=C/C(=O)CC(=O)/C=C/c2ccc(OC(=O)CCCCC3CCSS3)c(OC)c2)ccc1OC(=O)CCCCC1CCSS1` (stereo not given), the TGI is over 100 µM.

On to `O=c1c2sc(=S)n(-c3ccc(F)cc3)c2ncn1/N=C/c1ccc(F)cc1F`, for which the TGI was over 100 µM.

In another experiment the test system is RXF 393 renal. Description: DTP human tumour cell line panel, 48 h.
Compound `CCN(CC)/C(SCc1ccccc1)=C(\C(Cl)=C(Cl)Cl)[N+](=O)[O-]` gave a concentration for total growth inhibition (TGI) of 26.6 µM.

The compound `Cc1ccc2c(c1)C(=O)C1(Cc3ccccc3C1=O)C2` (stereo not given) came in with a TGI of over 100 µM.

Regarding `COc1cc(/C=C/C(=O)CC(=O)/C=C/c2ccc(OC(=O)CCCCC3CCSS3)c(OC)c2)ccc1OC(=O)CCCCC1CCSS1` (stereo not given), the TGI was over 100 µM.

Regarding `O=c1c2sc(=S)n(-c3ccc(F)cc3)c2ncn1/N=C/c1ccc(F)cc1F`, the TGI came to 45.5 µM.

The test system of another experiment is MDA-MB-231 breast. Nature of the experiment: DTP human tumour cell line panel, 48 h.
`CCN(CC)/C(SCc1ccccc1)=C(\C(Cl)=C(Cl)Cl)[N+](=O)[O-]` came in with a TGI of 49.7 µM.

Turning to `Cc1ccc2c(c1)C(=O)C1(Cc3ccccc3C1=O)C2` (stereo not given), the TGI was over 100 µM.

As to `COc1cc(/C=C/C(=O)CC(=O)/C=C/c2ccc(OC(=O)CCCCC3CCSS3)c(OC)c2)ccc1OC(=O)CCCCC1CCSS1` (stereo not given), the TGI is over 100 µM.

Turning to `O=c1c2sc(=S)n(-c3ccc(F)cc3)c2ncn1/N=C/c1ccc(F)cc1F`, the TGI amounted to 53.4 µM.

In the next experiment the test system is LOX IMVI melanoma. Description: DTP human tumour cell line panel, 48 h.
Compound `CCN(CC)/C(SCc1ccccc1)=C(\C(Cl)=C(Cl)Cl)[N+](=O)[O-]` came in with a TGI of 32.7 µM.

For the compound `Cc1ccc2c(c1)C(=O)C1(Cc3ccccc3C1=O)C2` (stereo not given), the TGI is over 100 µM.

Compound `COc1cc(/C=C/C(=O)CC(=O)/C=C/c2ccc(OC(=O)CCCCC3CCSS3)c(OC)c2)ccc1OC(=O)CCCCC1CCSS1` (stereo not given) gave a TGI of over 100 µM.

Take `O=c1c2sc(=S)n(-c3ccc(F)cc3)c2ncn1/N=C/c1ccc(F)cc1F`: the concentration for total growth inhibition (TGI) is over 100 µM.

The next experiment relates to HCT-15 colon. Description: DTP human tumour cell line panel, 48 h.
`CCN(CC)/C(SCc1ccccc1)=C(\C(Cl)=C(Cl)Cl)[N+](=O)[O-]` registered a total growth inhibition concentration (TGI) of 71.7 µM.

`Cc1ccc2c(c1)C(=O)C1(Cc3ccccc3C1=O)C2` (stereo not given) came in with a TGI of over 100 µM.

`COc1cc(/C=C/C(=O)CC(=O)/C=C/c2ccc(OC(=O)CCCCC3CCSS3)c(OC)c2)ccc1OC(=O)CCCCC1CCSS1` (stereo not given): the TGI was over 100 µM.

Compound `O=c1c2sc(=S)n(-c3ccc(F)cc3)c2ncn1/N=C/c1ccc(F)cc1F` gave a TGI of over 100 µM.

Another experiment relates to SNB-19 CNS. Nature of the experiment: DTP human tumour cell line panel, 48 h.
On to `CCN(CC)/C(SCc1ccccc1)=C(\C(Cl)=C(Cl)Cl)[N+](=O)[O-]`, for which the TGI stood at 97.5 µM.

The compound `Cc1ccc2c(c1)C(=O)C1(Cc3ccccc3C1=O)C2` (stereo not given) came in with a TGI of over 100 µM.

`COc1cc(/C=C/C(=O)CC(=O)/C=C/c2ccc(OC(=O)CCCCC3CCSS3)c(OC)c2)ccc1OC(=O)CCCCC1CCSS1` (stereo not given) yielded a TGI of over 100 µM.

As for `O=c1c2sc(=S)n(-c3ccc(F)cc3)c2ncn1/N=C/c1ccc(F)cc1F`, the TGI came out at 62.6 µM.

The next experiment has as its system SNB-75 CNS. Description: DTP human tumour cell line panel, 48 h.
For `Cc1ccc2c(c1)C(=O)C1(Cc3ccccc3C1=O)C2` (stereo not given), the TGI is over 100 µM.

In turn, `COc1cc(/C=C/C(=O)CC(=O)/C=C/c2ccc(OC(=O)CCCCC3CCSS3)c(OC)c2)ccc1OC(=O)CCCCC1CCSS1` (stereo not given) showed a TGI of over 100 µM.

`O=c1c2sc(=S)n(-c3ccc(F)cc3)c2ncn1/N=C/c1ccc(F)cc1F` registered a TGI of 32.8 µM.

The test system of another experiment is RPMI-8226 leukemia. Nature of the experiment: DTP human tumour cell line panel, 48 h.
Take `CCN(CC)/C(SCc1ccccc1)=C(\C(Cl)=C(Cl)Cl)[N+](=O)[O-]`: the TGI was found to be 65.6 µM.

For `Cc1ccc2c(c1)C(=O)C1(Cc3ccccc3C1=O)C2` (stereo not given), the TGI was over 100 µM.

With `COc1cc(/C=C/C(=O)CC(=O)/C=C/c2ccc(OC(=O)CCCCC3CCSS3)c(OC)c2)ccc1OC(=O)CCCCC1CCSS1` (stereo not given), the TGI was over 100 µM.

Take `O=c1c2sc(=S)n(-c3ccc(F)cc3)c2ncn1/N=C/c1ccc(F)cc1F`: the TGI was over 100 µM.

In a further experiment the test system is OVCAR-8 ovarian. Nature of the experiment: DTP human tumour cell line panel, 48 h.
The compound `CCN(CC)/C(SCc1ccccc1)=C(\C(Cl)=C(Cl)Cl)[N+](=O)[O-]` returned a TGI of 31.7 µM.

Regarding `Cc1ccc2c(c1)C(=O)C1(Cc3ccccc3C1=O)C2` (stereo not given), the TGI was over 100 µM.

For `COc1cc(/C=C/C(=O)CC(=O)/C=C/c2ccc(OC(=O)CCCCC3CCSS3)c(OC)c2)ccc1OC(=O)CCCCC1CCSS1` (stereo not given), the TGI is over 100 µM.

Turning to `O=c1c2sc(=S)n(-c3ccc(F)cc3)c2ncn1/N=C/c1ccc(F)cc1F`, the TGI is 44.9 µM.

In another experiment the test system is T-47D breast. Description: DTP human tumour cell line panel, 48 h.
As for `CCN(CC)/C(SCc1ccccc1)=C(\C(Cl)=C(Cl)Cl)[N+](=O)[O-]`, the TGI was 86.7 µM.

Compound `Cc1ccc2c(c1)C(=O)C1(Cc3ccccc3C1=O)C2` (stereo not given) displayed a TGI of over 100 µM.

The test system of the next experiment is HOP-92 NSCLC. Description: DTP human tumour cell line panel, 48 h.
As to `Cc1ccc2c(c1)C(=O)C1(Cc3ccccc3C1=O)C2` (stereo not given), the TGI was over 100 µM.

In turn, `O=c1c2sc(=S)n(-c3ccc(F)cc3)c2ncn1/N=C/c1ccc(F)cc1F` had a TGI of 44 µM.

A further experiment has as its system K-562 leukemia. Description: DTP human tumour cell line panel, 48 h.
Consider `CCN(CC)/C(SCc1ccccc1)=C(\C(Cl)=C(Cl)Cl)[N+](=O)[O-]`, for which the TGI is over 100 µM.

With `Cc1ccc2c(c1)C(=O)C1(Cc3ccccc3C1=O)C2` (stereo not given), the TGI is over 100 µM.

`COc1cc(/C=C/C(=O)CC(=O)/C=C/c2ccc(OC(=O)CCCCC3CCSS3)c(OC)c2)ccc1OC(=O)CCCCC1CCSS1` (stereo not given) gave a TGI of over 100 µM.

`O=c1c2sc(=S)n(-c3ccc(F)cc3)c2ncn1/N=C/c1ccc(F)cc1F` showed a TGI of over 100 µM.

The subject of a further experiment is HT29 colon. Nature of the experiment: DTP human tumour cell line panel, 48 h.
For `CCN(CC)/C(SCc1ccccc1)=C(\C(Cl)=C(Cl)Cl)[N+](=O)[O-]`, the TGI was found to be 81.7 µM.

As for `Cc1ccc2c(c1)C(=O)C1(Cc3ccccc3C1=O)C2` (stereo not given), the TGI was over 100 µM.

As to `COc1cc(/C=C/C(=O)CC(=O)/C=C/c2ccc(OC(=O)CCCCC3CCSS3)c(OC)c2)ccc1OC(=O)CCCCC1CCSS1` (stereo not given), the TGI is over 100 µM.

`O=c1c2sc(=S)n(-c3ccc(F)cc3)c2ncn1/N=C/c1ccc(F)cc1F` returned a TGI of over 100 µM.

In another experiment the test system is A498 renal. Description: DTP human tumour cell line panel, 48 h.
Consider `CCN(CC)/C(SCc1ccccc1)=C(\C(Cl)=C(Cl)Cl)[N+](=O)[O-]`, for which the TGI came out at 26.9 µM.

`Cc1ccc2c(c1)C(=O)C1(Cc3ccccc3C1=O)C2` (stereo not given): the TGI was over 100 µM.

The values are drawn from PubChem BioAssay (NCI).
